Where “and” joins values, the source holds several entries; their conditions need not be identical. Equal values may be shown once.
The compounds below were run against Nonstructural protein 3 (Zika virus, UniProt A0A024AXB9) (assay: Functional biochemical assay to identify treatments for viral infectious disease that targets Zika NS2B-NS3 protease. Utilizing a direct enzyme activity measurement method, reading the fluorescence intensity is used to characterize the relative potency of inhibitors as IC50.).
Chain of Nonstructural protein 3 (A0A024AXB9 whole entry): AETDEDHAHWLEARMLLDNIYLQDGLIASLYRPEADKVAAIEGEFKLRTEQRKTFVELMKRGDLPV
Parameters: species or system PRVABC59

Structure (SMILES)	IC50
O=C(O)c1cc(Cl)ccc1S(=O)(=O)NC1CCN(Cc2ccc(F)c(F)c2)CC1	> 99.5 µM
CCN1CCN(c2ccc(NS(=O)(=O)c3ccc(Cl)cc3C(=O)O)cc2)CC1	> 99.5 µM
CCn1c(=O)c(N2C[C@H]3CCC[C@H]2C3)nc2ccccc21	> 99.5 µM
O=C(O)c1cc(Cl)ccc1S(=O)(=O)Nc1ccc(N2CCCCC2)c(Cl)c1	> 99.5 µM
O=C(O)c1cc(Cl)ccc1S(=O)(=O)NC1CCN(c2ccc(C(F)(F)F)cn2)CC1	> 99.5 µM
O=C(O)Cc1cc(NS(=O)(=O)c2ccc(Oc3ccccc3Cl)cc2)ccc1Cl	> 99.5 µM
O=C(O)c1cc(F)c(F)c(F)c1NS(=O)(=O)c1ccc(Oc2ccccc2Cl)cc1	88.8 µM
CCC(=O)N1CCc2ccc(NS(=O)(=O)c3ccc(Cl)cc3C(=O)O)cc21	> 99.5 µM
NCc1cccc(NC(=O)[C@H](NS(=O)(=O)C2CCCCC2)c2ccc(OCc3ccccc3)cc2)c1	64.8 µM
Cc1nn(C)cc1-c1ccc(S(=O)(=O)Nc2ccc(Cl)cc2C(=O)O)cc1	> 99.5 µM
O=C(Cn1ccnc(N2CC[C@H](CO)C2)c1=O)NCc1nccs1	> 99.5 µM
CCn1ccnc(N2C[C@H](c3c[nH]c4ccccc34)[C@H](N3C(=O)c4ccccc4C3=O)C2)c1=O	> 99.5 µM
O=C(Nc1ccc(NS(=O)(=O)c2ccc(Cl)cc2C(=O)O)cc1)c1ccccc1	> 99.5 µM
COc1ccc(N2CCC(NS(=O)(=O)c3ccc(Cl)cc3C(=O)O)CC2)cc1	> 99.5 µM
O=C(O)c1cc(Cl)ccc1S(=O)(=O)N[C@H]1CC[C@@H](Oc2ccccc2)CC1	> 99.5 µM
COc1ccc(NS(=O)(=O)c2ccc(Cl)cc2C(=O)O)cc1-n1nnnc1C	> 99.5 µM
NCc1cccc(NC(=O)[C@H](NC(=O)Cc2ccccc2)c2ccc(OCc3ccccc3)cc2)c1	28.9 µM and 28.2 µM
O=C(O)c1cc(Cl)ccc1NS(=O)(=O)c1ccc(-c2ccccc2Cl)cc1	17.8 µM
O=C(O)c1cc(Cl)ccc1S(=O)(=O)NC1CCN(c2ncnc3c2CCC3)CC1	> 99.5 µM
NCc1cccc(NC(=O)[C@H](NC(=O)OCc2ccccc2)c2ccc(Br)cc2F)c1	72 µM
Cn1ccnc(N2CCC(NS(=O)(=O)c3ccc(Cl)cc3C(=O)O)CC2)c1=O	> 99.5 µM
O=C(O)c1cc(Cl)ccc1S(=O)(=O)NC1CCN(S(=O)(=O)Cc2ccccc2)CC1	> 99.5 µM
Cn1cc(-c2cccc([C@H](NC(=O)OCc3ccccc3)C(=O)Nc3cccc(CN)c3)c2)cn1	> 99.5 µM
COCc1cc(Cl)ccc1NS(=O)(=O)c1ccc(Oc2ccccc2Cl)cc1	> 99.5 µM
CCN(C(=O)Cn1ccnc(N2CC[C@H](CO)C2)c1=O)C(C)C	> 99.5 µM

Structure (SMILES)	IC50
NCc1cccc(NC(=O)c2cc(NC(=O)OCc3ccccc3)c(=O)n3c2CCCC3)c1	> 99.5 µM
COc1ncccc1-c1cccc([C@H](NC(=O)OCc2ccccc2)C(=O)Nc2cccc(CN)c2)c1	67.4 µM
O=C(O)c1cc(Cl)ccc1S(=O)(=O)Nc1ccc(CCN2CCCC2)cc1	> 99.5 µM
Cc1cc(N2CCCCC2)ccc1NS(=O)(=O)c1ccc(Cl)cc1C(=O)O	> 99.5 µM
NCc1cccc(NC(=O)[C@H](NC(=O)c2ccns2)c2ccc(OCc3ccccc3)cc2)c1	95.2 µM
COc1ccc(NS(=O)(=O)c2ccc(Cl)cc2C(=O)O)cc1N1CCCC1=O	> 99.5 µM
O=C(O)c1cc(Cl)ccc1S(=O)(=O)Nc1ccc(F)c(N2CCNC2=O)c1	> 99.5 µM
Cc1nccn1-c1ccc(NS(=O)(=O)c2ccc(Cl)cc2C(=O)O)cc1F	> 99.5 µM
O=C(O)c1cc(Cl)ccc1NS(=O)(=O)c1ccc(-c2ccccc2F)cc1	29.2 µM
O=C(O)c1cc(Cl)ccc1S(=O)(=O)Nc1ccc(N2CCCS2(=O)=O)cc1	> 99.5 µM
Cc1cc(N2CCC(NS(=O)(=O)c3ccc(Cl)cc3C(=O)O)CC2)nc(C)n1	> 99.5 µM
CCOc1cccc(-c2ccc(S(=O)(=O)Nc3ccc(Cl)cc3C(=O)O)cc2)c1	14.7 µM and 13.8 µM
O=C(Cn1ccnc(N2CC[C@H](CO)C2)c1=O)Nc1ccccc1	> 99.5 µM
CCn1c(=O)c(N2C[C@H]3C[C@H]2CS(=O)(=O)C3)nc2ccccc21	> 99.5 µM
CS(=O)(=O)c1ccc(-c2ccc(S(=O)(=O)Nc3ccc(Cl)cc3C(=O)O)cc2)cc1	77.5 µM
NCc1cccc(NC(=O)[C@H](NC(=O)OCc2ccccc2)c2cccc(-c3cncc(F)c3)c2)c1	> 99.5 µM
CCn1c(=O)c(N2CC[C@H]3[C@H]2[C@H]3C(F)(F)F)nc2ccccc21	> 99.5 µM
CS(=O)(=O)c1ccc(-c2cccc([C@H](NC(=O)OCc3ccccc3)C(=O)Nc3cccc(CN)c3)c2)cc1	70.5 µM
CCC(C)(C)C(=O)N[C@H](C(=O)Nc1cccc(CN)c1)c1ccc(OCc2ccccc2)cc1	> 99.5 µM
O=C(O)c1cc(Cl)ccc1NS(=O)(=O)c1ccc(-c2cccnc2)cc1	> 99.5 µM
O=C(O)c1cc(Cl)ccc1S(=O)(=O)NC1CCC(N2CCCCC2=O)CC1 (stereo not drawn)	> 99.5 µM
O=C(O)c1cc(Cl)ccc1S(=O)(=O)Nc1ccc(Oc2ccccn2)cc1	> 99.5 µM
Cc1ccc(C(=O)N[C@H](C(=O)Nc2cccc(CN)c2)c2ccc(OCc3ccccc3)cc2)s1	60 µM
CS(=O)(=O)c1cncc(-c2cccc([C@H](NC(=O)OCc3ccccc3)C(=O)Nc3cccc(CN)c3)c2)c1	60.8 µM
O=C(O)c1cc(Cl)ccc1S(=O)(=O)Nc1ccc(N2CCCCC2)c(F)c1	> 99.5 µM

Structure (SMILES)	IC50
O=C(O)c1cc(Cl)ccc1S(=O)(=O)Nc1ccc(S(=O)(=O)N2CCCCC2)cc1	> 99.5 µM
CCN1C[C@H]2C[C@@H]1CN2c1nc2ccccc2n(CC)c1=O	> 99.5 µM
Cc1ccc(S(=O)(=O)N2CCC(NS(=O)(=O)c3ccc(Cl)cc3C(=O)O)CC2)cc1	> 99.5 µM
Cc1cc(OCc2ccccc2)ccc1NS(=O)(=O)c1ccc(Cl)cc1C(=O)O	> 99.5 µM
CCn1c(=O)c(N2CCC[C@@H]2c2cncn2C)nc2ccccc21	> 99.5 µM
CC(C)(C)OC(=O)NCc1cccc(NC(=O)[C@H](NC(=O)OCc2ccccc2)C2CCNCC2)c1	> 99.5 µM
N#Cc1ccccc1-c1ccc(S(=O)(=O)Nc2ccc(Cl)cc2C(=O)O)cc1	80 µM
CCn1c(=O)c(N2CCC[C@H]2C(=O)NC2CC2)nc2ccccc21	> 99.5 µM
NCc1cccc(NC(=O)[C@H](NC(=O)CCc2ccccc2)c2ccc(OCc3ccccc3)cc2)c1	15.1 µM and 21.3 µM
NCc1cccc(NC(=O)[C@H](NC(=O)OCc2ccccc2)c2cccc(C3=CCCOC3)c2)c1	93.3 µM
O=C(O)c1cc(Cl)ccc1S(=O)(=O)NC1CCN(CC2CCOCC2)CC1	> 99.5 µM
NCc1cccc(NC(=O)c2cc(NC(=O)OCc3ccccc3)cc3c2OC(F)(F)O3)c1	> 99.5 µM
O=C(O)c1cc(Cl)ccc1S(=O)(=O)Nc1ccc(N2CCCCCC2)cc1	> 99.5 µM
COc1ccc(NS(=O)(=O)c2ccc(Cl)cc2C(=O)O)cc1OC1CCCC1	> 99.5 µM
O=C(O)c1cc(Cl)ccc1NS(=O)(=O)c1ccc(-c2cn[nH]c2)cc1	> 99.5 µM
CCOc1cc(N2CCN(C)CC2)ccc1NS(=O)(=O)c1ccc(Cl)cc1C(=O)O	> 99.5 µM
O=C(O)c1cc(Cl)c(F)cc1S(=O)(=O)Nc1ccc(Oc2ccccc2Cl)cc1	33.5 µM and 34.2 µM
NCc1ccc(NC(=O)c2cc(Cl)cc(NC(=O)OCc3ccccc3)c2)cc1	10.3 µM
O=C(O)c1cc(Cl)ccc1S(=O)(=O)NC1CCN(S(=O)(=O)c2ccc(I)cc2)CC1	> 99.5 µM
O=C(O)c1cc(Cl)ccc1S(=O)(=O)Nc1ccc(-c2cccc(F)c2)cc1	> 99.5 µM
O=C(O)c1cc(Cl)ccc1NS(=O)(=O)c1ccc(-c2cccc(F)c2F)cc1	25.7 µM
CC(=O)Nc1cccc(-c2ccc(S(=O)(=O)Nc3ccc(Cl)cc3C(=O)O)cc2)c1	> 99.5 µM
NCc1cccc(N(C(=O)CNC(=O)OCc2ccccc2)c2ccc(OCc3ccccc3)cc2)c1	> 99.5 µM
CCN1C(=O)CCc2cc(NS(=O)(=O)c3ccc(Cl)cc3C(=O)O)ccc21	> 99.5 µM
CN(C(=O)OCc1ccccc1)[C@H](C(=O)Nc1cccc(CN)c1)c1ccc(OCc2ccccc2)cc1	23.3 µM

Structure (SMILES)	IC50
O=C(O)c1cc(Cl)ccc1S(=O)(=O)NC1CCN(Cc2ccccn2)CC1	> 99.5 µM
CCn1c(=O)c(N2C[C@H](C)C[C@H]2c2ccccc2)nc2ccccc21	> 99.5 µM
COc1ccccc1-c1ccc(S(=O)(=O)Nc2ccc(Cl)cc2C(=O)O)cc1	37.6 µM
O=C(O)c1cc(Cl)ccc1S(=O)(=O)N[C@H]1CCN(Cc2ccccc2)C2(CC2)C1	> 99.5 µM
CS(=O)(=O)c1ccc(-c2cccc([C@H](NC(=O)OCc3ccccc3)C(=O)Nc3cccc(CN)c3)c2)cn1	> 99.5 µM
CC1(NS(=O)(=O)c2ccc(Cl)cc2C(=O)O)CCN(c2ccccc2)CC1	> 99.5 µM
CCOCC(=O)N[C@H](C(=O)Nc1cccc(CN)c1)c1ccc(OCc2ccccc2)cc1	> 99.5 µM
O=C(O)c1cc(Cl)ccc1S(=O)(=O)NC1CCN(C(=O)c2ccccc2C(F)(F)F)CC1	> 99.5 µM
CCn1c(=O)c(N2CC[C@H](c3nncs3)C2)nc2ccccc21	> 99.5 µM
NCc1cccc(NC(=O)[C@H](NC(=O)OCc2ccccc2)C2CCC(c3ccccc3)CC2)c1 (stereo partly drawn)	7.6 µM and 7.31 µM
NCc1ccccc1NC(=O)c1cc(Cl)cc(NC(=O)OCc2ccccc2)c1	> 99.5 µM
Cc1cc(C)n(-c2ccc(NS(=O)(=O)c3ccc(Cl)cc3C(=O)O)cc2)n1	> 99.5 µM
O=C(O)c1cc(Cl)ccc1S(=O)(=O)N[C@H]1CCN(Cc2ccccc2)C(=O)C1	> 99.5 µM
O=C(O)c1cc(Cl)ccc1S(=O)(=O)N[C@H]1CC[C@H]2CN(Cc3ccccc3)C[C@H]2C1	> 99.5 µM
Cc1ncc(COc2ccc([C@H](NC(=O)OCc3ccccc3)C(=O)Nc3cccc(CN)c3)cc2)cn1	> 99.5 µM
CCCCN1Cc2ccc(NS(=O)(=O)c3ccc(Cl)cc3C(=O)O)cc2C1	> 99.5 µM
Cc1cc(-c2cccc([C@H](NC(=O)OCc3ccccc3)C(=O)Nc3cccc(CN)c3)c2)[nH]n1	> 99.5 µM
CCn1c(=O)c(N2CC[C@]3(CCSC3)C2)nc2ccccc21	> 99.5 µM
NS(=O)(=O)c1cccc(-c2ccc(S(=O)(=O)Nc3ccc(Cl)cc3C(=O)O)cc2)c1	> 99.5 µM
CCn1c(=O)c(N2CCC[C@@H]2Cc2cccs2)nc2ccccc21	> 99.5 µM
NCc1cccc(NC(=O)c2cc(Br)cc(NC(=O)OCc3ccccc3)c2)c1	7.91 µM
CC(=O)N1CCN([C@H]2CC[C@H](NS(=O)(=O)c3ccc(Cl)cc3C(=O)O)CC2)CC1	> 99.5 µM
O=C(O)c1cc(Cl)ccc1S(=O)(=O)Nc1nn(Cc2ccccc2)cc1Cl	> 99.5 µM

From ChEMBL document CHEMBL5604062, “ASAP - ZIKV NS2B-NS3 protease fluorescence dose response” (2024)
